Consider 1 compound from publication PMC3933250 (Annals of Oncology, 2014).

One data set deals with R/M-SCCHN patients. Conditions: ≤2000 mg cilengitide plus PFE, phase I part; cited from earlier work.
Data set [1] is described as follows: Cilengitide pharmacokinetic profile in plasma during cycle 1. The format is in vivo, human. The note with it: PFE + CIL1W and PFE + CIL2W groups.

In the case of `CC(C)[C@H]1C(=O)N[C@@H](CCCN=C(N)N)C(=O)NCC(=O)N[C@@H](CC(=O)O)C(=O)N[C@H](Cc2ccccc2)C(=O)N1C` [cilengitide, Cilengitide], the “Dose-limiting or unexpected toxicities” value in the data set with R/M-SCCHN patients is reported as “no dose-limiting or unexpected toxicities”. Moreover, in data set [1], the “Influence of the different cilengitide dosing on cetuximab exposure” value was “no clinically relevant influence”.
